Experimental data from PubChem BioAssay AID1919017 (Molecular Pharmacology Branch, DTP, NCI, 2023).
“And” between values parts separate entries of the source, which are not always exact repeats. Identical values can stand only once.

Tested on: SW1271 complex spheroids with HUVEC/MSC, growth, % test/control
Assay: Anticancer human tumor SW1271 cell line growth inhibition [AhR];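 also: spheroids exposed to agents for 7 days before readout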
Conditions: for viability, T/C: stronger effect = lower value
Procedure, shortened: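 Spheroids combined tumor cells with HUVEC endothelial cells and human MSCs as stroma. AhR antagonists were paired with standard or investigational drugs, each dosed in half-log steps down from near clinical Cmax, or from 10 microM where Cmax was unknown.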

[1] = curve of first compound, second compound 0.1 µM
[2] = curve of first compound, second compound 0.316 µM
[3] = curve of first compound, second compound 1 µM
[4] = curve of first compound, second compound 3.16 µM
[5] = curve of first compound, second compound 10 µM
[6] = second compound 0.1 µM, first compound 0.0316 µM
[7] = second compound 0.1 µM, first compound 0.1 µM
[8] = second compound 0.1 µM, first compound 0.316 µM
[9] = second compound 0.1 µM, first compound 1 µM
[10] = second compound 0.1 µM, first compound 3.16 µM
[11] = second compound 0.1 µM, first compound 10 µM
[12] = second compound 0.316 µM, first compound 0.0316 µM
[13] = second compound 0.316 µM, first compound 0.1 µM
[14] = second compound 0.316 µM, first compound 0.316 µM
[15] = second compound 0.316 µM, first compound 1 µM
[16] = second compound 0.316 µM, first compound 3.16 µM
[17] = second compound 0.316 µM, first compound 10 µM
[18] = second compound 1 µM, first compound 0.0316 µM
[19] = second compound 1 µM, first compound 0.1 µM
[20] = second compound 1 µM, first compound 0.316 µM
[21] = second compound 1 µM, first compound 1 µM
[22] = second compound 1 µM, first compound 3.16 µM
[23] = second compound 1 µM, first compound 10 µM
[24] = second compound 3.16 µM, first compound 0.0316 µM
[25] = second compound 3.16 µM, first compound 0.1 µM
[26] = second compound 3.16 µM, first compound 0.316 µM
[27] = second compound 3.16 µM, first compound 1 µM
[28] = second compound 3.16 µM, first compound 3.16 µM
[29] = second compound 3.16 µM, first compound 10 µM
[30] = second compound 10 µM, first compound 0.0316 µM
[31] = second compound 10 µM, first compound 0.1 µM
[32] = second compound 10 µM, first compound 0.316 µM
[33] = second compound 10 µM, first compound 1 µM
[34] = second compound 10 µM, first compound 3.16 µM
[35] = second compound 10 µM, first compound 10 µM
[36] = second compound 0.1 µM, first compound 0.000949 µM
[37] = second compound 0.1 µM, first compound 0.003 µM
[38] = second compound 0.1 µM, first compound 0.00949 µM
[39] = second compound 0.1 µM, first compound 0.03 µM
[40] = second compound 0.1 µM, first compound 0.0949 µM
[41] = second compound 0.1 µM, first compound 0.3 µM
[42] = second compound 0.316 µM, first compound 0.000949 µM
[43] = second compound 0.316 µM, first compound 0.003 µM
[44] = second compound 0.316 µM, first compound 0.00949 µM
[45] = second compound 0.316 µM, first compound 0.03 µM
[46] = second compound 0.316 µM, first compound 0.0949 µM
[47] = second compound 0.316 µM, first compound 0.3 µM
[48] = second compound 1 µM, first compound 0.000949 µM
[49] = second compound 1 µM, first compound 0.003 µM
[50] = second compound 1 µM, first compound 0.00949 µM
[51] = second compound 1 µM, first compound 0.03 µM
[52] = second compound 1 µM, first compound 0.0949 µM
[53] = second compound 1 µM, first compound 0.3 µM
[54] = second compound 3.16 µM, first compound 0.000949 µM
[55] = second compound 3.16 µM, first compound 0.003 µM
[56] = second compound 3.16 µM, first compound 0.00949 µM
[57] = second compound 3.16 µM, first compound 0.03 µM
[58] = second compound 3.16 µM, first compound 0.0949 µM
[59] = second compound 3.16 µM, first compound 0.3 µM
[60] = second compound 10 µM, first compound 0.000949 µM
[61] = second compound 10 µM, first compound 0.003 µM
[62] = second compound 10 µM, first compound 0.00949 µM
[63] = second compound 10 µM, first compound 0.03 µM
[64] = second compound 10 µM, first compound 0.0949 µM
[65] = second compound 10 µM, first compound 0.3 µM

`O=C(c1cc(Cc2n[nH]c(=O)c3ccccc23)ccc1F)N1CCN(C(=O)C2CC2)CC1` + Cc1ccccc1N=Nc1ccc(NC(=O)c2ccnn2C)c(C)c1 showed an IC50 [1] of over 10000 nM, an IC50 [2] of over 10000 nM and an IC50 [3] of over 10000 nM. It also gave an IC50 [4] of over 10000 nM, an IC50 [5] of over 10000 nM and a viability, T/C [6] of 82.5%. The viability, T/C [7] was 101%, the viability, T/C [8] was 98.3% and the viability, T/C [9] was 91.4%. It also gave a viability, T/C [10] of 88.4%, a viability, T/C [11] of 78.9% and a viability, T/C [12] of 106%. It also gave a viability, T/C [13] of 104%, a viability, T/C [14] of 102% and a viability, T/C [15] of 98.7%. For the same compound, the viability, T/C [16] was 96.3%, the viability, T/C [17] was 90.8% and the viability, T/C [18] was 79.5%. For the same compound, the viability, T/C [19] was 116%, the viability, T/C [20] was 104% and the viability, T/C [21] was 92.5%. It also gave a viability, T/C [22] of 114%, a viability, T/C [23] of 98.3% and a viability, T/C [24] of 94.3%. The viability, T/C [25] was 109%, the viability, T/C [26] was 104% and the viability, T/C [27] was 81.9%. For the same compound, the viability, T/C [28] was 99.2%, the viability, T/C [29] was 100% and the viability, T/C [30] was 89.4%. For the same compound, the viability, T/C [31] was 107%, the viability, T/C [32] was 108% and the viability, T/C [33] was 83.5%. The viability, T/C [34] was 89.5% and the viability, T/C [35] was 102%.

For `Nc1ccccc1NC(=O)c1ccc(CNC(=O)OCc2cccnc2)cc1` + CC(CO)NC(=O)c1cc(-c2ccc(Cl)cc2)nn(-c2cnn(C)c2)c1=O, the IC50 [1] was 1040 nM, the IC50 [2] was 838 nM and the IC50 [3] was 676 nM. For the same compound, the IC50 [4] was 1000 nM, the IC50 [5] was 294 nM and the viability, T/C [6] was 92.2%. For the same compound, the viability, T/C [7] was 89.6%, the viability, T/C [8] was 78.5% and the viability, T/C [9] was 43%. It also gave a viability, T/C [10] of 34.8%, a viability, T/C [11] of 10.7% and a viability, T/C [12] of 103%. The viability, T/C [13] was 85.2%, the viability, T/C [14] was 67.3% and the viability, T/C [15] was 41.4%. It also gave a viability, T/C [16] of 35%, a viability, T/C [17] of 9.29% and a viability, T/C [18] of 87.7%. It also gave a viability, T/C [19] of 82%, a viability, T/C [20] of 60.4% and a viability, T/C [21] of 40.8%. For the same compound, the viability, T/C [22] was 30.2%, the viability, T/C [23] was 10.4% and the viability, T/C [24] was 65.2%. The viability, T/C [25] was 64.7%, the viability, T/C [26] was 65.5% and the viability, T/C [27] was 44.9%. The viability, T/C [28] was 34.5%, the viability, T/C [29] was 11% and the viability, T/C [30] was 70.2%. It also gave a viability, T/C [31] of 63%, a viability, T/C [32] of 43.5% and a viability, T/C [33] of 43.6%. The viability, T/C [34] was 19% and the viability, T/C [35] was 11.4%.

Work on `CC(C)CC(NC(=O)C(Cc1ccccc1)NC(=O)c1cnccn1)B(O)O` (configuration not stated) + CC(CO)NC(=O)c1cc(-c2ccc(Cl)cc2)nn(-c2cnn(C)c2)c1=O yielded an IC50 [1] of 4.95 nM, an IC50 [2] of 5.08 nM and an IC50 [3] of 5.33 nM. The IC50 [4] was 4.77 nM, the IC50 [5] was 4.41 nM and the viability, T/C [36] was 116%. The viability, T/C [37] was 86.6%, the viability, T/C [38] was 2.31% and the viability, T/C [39] was 0.27%. It also gave a viability, T/C [40] of 0.34%, a viability, T/C [41] of 0.41% and a viability, T/C [42] of 92.5%. For the same compound, the viability, T/C [43] was 88.3%, the viability, T/C [44] was 4.62% and the viability, T/C [45] was 0.41%. For the same compound, the viability, T/C [46] was 0.43%, the viability, T/C [47] was 0.4% and the viability, T/C [48] was 99.9%. For the same compound, the viability, T/C [49] was 97.5%, the viability, T/C [50] was 2.34% and the viability, T/C [51] was 0.34%. For the same compound, the viability, T/C [52] was 0.31%, the viability, T/C [53] was 0.55% and the viability, T/C [54] was 66.9%. The viability, T/C [55] was 96.6%, the viability, T/C [56] was 3.1% and the viability, T/C [57] was 0.44%. For the same compound, the viability, T/C [58] was 0.3%, the viability, T/C [59] was 0.38% and the viability, T/C [60] was 73.6%. It also gave a viability, T/C [61] of 75.2%, a viability, T/C [62] of 1.45% and a viability, T/C [63] of 0.5%. The viability, T/C [64] was 0.51% and the viability, T/C [65] was 0.39%.

With `NS(=O)(=O)OCC1CC(n2ccc3c(NC4CCc5ccccc54)ncnc32)CC1O` (configuration not stated) the viability, T/C (compound 0.0316 µM) was 151% and 137% and 133%, the viability, T/C (compound 0.1 µM) was 143% and 152% and 145% and the viability, T/C (compound 0.316 µM) was 120% and 101% and 89.3%. The viability, T/C (compound 1 µM) was 99.3% and 103% and 71.7%, the viability, T/C (compound 3.16 µM) was 88.6% and 93.6% and 57.3% and the viability, T/C (compound 10 µM) was 77% and 86.9% and 55.2%. For the same compound, the IC50 (curve of compound) was > 10000 nM and 8700 nM.

`CCc1c2c(nc3ccc(O)cc13)-c1cc3c(c(=O)n1C2)COC(=O)[C@]3(O)CC` + CC(CO)NC(=O)c1cc(-c2ccc(Cl)cc2)nn(-c2cnn(C)c2)c1=O showed an IC50 [1] of 29.9 nM, an IC50 [2] of over 300 nM and an IC50 [3] of 138 nM. It also gave an IC50 [4] of over 300 nM, an IC50 [5] of over 300 nM and a viability, T/C [36] of 83%. For the same compound, the viability, T/C [37] was 83.5%, the viability, T/C [38] was 66% and the viability, T/C [39] was 51%. It also gave a viability, T/C [40] of 48.2%, a viability, T/C [41] of 47.3% and a viability, T/C [42] of 72.8%. It also gave a viability, T/C [43] of 79%, a viability, T/C [44] of 67.9% and a viability, T/C [45] of 63.2%. The viability, T/C [46] was 56.3%, the viability, T/C [47] was 58.8% and the viability, T/C [48] was 73.4%. It also gave a viability, T/C [49] of 85.9%, a viability, T/C [50] of 56.6% and a viability, T/C [51] of 67%. The viability, T/C [52] was 54%, the viability, T/C [53] was 42% and the viability, T/C [54] was 74.1%. The viability, T/C [55] was 73.8%, the viability, T/C [56] was 58% and the viability, T/C [57] was 55.1%. It also gave a viability, T/C [58] of 49.1%, a viability, T/C [59] of 50.5% and a viability, T/C [60] of 71.6%. The viability, T/C [61] was 65.8%, the viability, T/C [62] was 55.5% and the viability, T/C [63] was 58.3%. The viability, T/C [64] was 45.7% and the viability, T/C [65] was 54.7%.
